# According to US8378104B2 (OSI Pharmaceuticals, LLC, priority 2010, dated 2013):
# pIC50: −log10 of the molar value. Counter-ions that a name gives are not always drawn.
# Biological target: T1, TAK1-TAB1 fusion protein (Homo sapiens, UniProt O43318)
# T1 construct: purchased Carna
# T1 sequence (O43318 with tags, fused parts or gaps limits assumed): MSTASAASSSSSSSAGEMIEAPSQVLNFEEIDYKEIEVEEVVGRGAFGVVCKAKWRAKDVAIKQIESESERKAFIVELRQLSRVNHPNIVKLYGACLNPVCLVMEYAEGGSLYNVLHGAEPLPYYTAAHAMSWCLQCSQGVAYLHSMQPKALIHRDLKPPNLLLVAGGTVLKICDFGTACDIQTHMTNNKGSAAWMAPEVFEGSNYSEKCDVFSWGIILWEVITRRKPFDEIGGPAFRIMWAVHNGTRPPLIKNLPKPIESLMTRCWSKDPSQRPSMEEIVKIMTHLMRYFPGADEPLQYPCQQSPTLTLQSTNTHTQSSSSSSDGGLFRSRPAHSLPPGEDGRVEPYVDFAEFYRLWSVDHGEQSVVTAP
# Experiment: TAK1 biochemical assay (AlphaScreen, GST-MAP2K7 substrate)
# Conditions: TAK1-TAB1 fusion protein, GST-MAP2K7 substrate; read-out: mean TAK1 IC50 (Col. A)
row,Structure (SMILES),pIC50
1,"CC(=O)N1CCC(n2cc(-c3cnc(N)c4oc(C5CCCCC5)cc34)cn2)CC1 [Example 152, 1-{4-[4-(7-amino-2-cyclohexylfuro[2,3-c]pyridin-4-yl)-1H-pyrazol-1-yl]piperidin-1-yl}ethanone]",6.00 to 7.00
2,"CC(=O)N1CCC(n2cc(-c3cnc(N)c4oc(-c5ccc(OC(F)(F)F)cc5)cc34)cn2)CC1 [Example 173, 1-[4-(4-{7-amino-2-[4-(trifluoromethoxy)phenyl]furo[2,3-c]pyridin-4-yl}-1H-pyrazol-1-yl)piperidin-1-yl]ethanone]",< 5.00
3,"CC(=O)N1CCC(n2cc(-c3cnc(N)c4oc(-c5ccc(CO)cc5)cc34)cn2)CC1 [Example 184, 1-[4-(4-{7-amino-2-[4-(hydroxymethyl)phenyl]furo[2,3-c]pyridin-4-yl}-1H-pyrazol-1-yl)piperidin-1-yl]ethanone]",5.00 to 6.00
4,"CC(=O)N1CCC(n2cc(-c3cnc(N)c4oc(-c5ccc6c(c5)OCCO6)cc34)cn2)CC1 [Example 157, 1-(4-{4-[7-amino-2-(2,3-dihydro-1,4-benzodioxin-6-yl)furo[2,3-c]pyridin-4-yl]-1H-pyrazol-1-yl}piperidin-1-yl)ethanone]",6.00 to 7.00
5,"Cc1cc(-c2cnc(N)c3oc(-c4csc5cnccc45)cc23)c(C)s1 [Example 377, 4-(2,5-dimethyl-thiophen-3-yl)-2-thieno[2,3-c]pyridin-3-yl-furo[2,3-c]pyridin-7-ylamine]",5.00 to 6.00
6,"Nc1ncc(-c2cnn([C@H]3CC[C@H](O)CC3)c2)c2cc(-c3c(-c4ccccc4)sc4cnccc34)oc12 [Example 269, trans-4-{4-[7-amino-2-(2-phenylthieno[2,3-c]pyridin-3-yl)furo[2,3-c]pyridin-4-yl]-1H-pyrazol-1-yl}cyclohexanol trifluoroacetate]",5.00 to 6.00
7,"Nc1ccc(-c2cc3c(-c4cnn(C5CCNCC5)c4)cnc(N)c3o2)cn1 [Example 20, 2-(6-aminopyridin-3-yl)-4-[1-(piperidin-4-yl)-1H-pyrazol-4-yl]furo[2,3-c]pyridine-7-amine]",5.00 to 6.00
8,"COC(=O)c1cc(-c2cnc(N)c3oc(-c4csc5cnccc45)cc23)cn1C [Example 398, 4-(7-amino-2-thieno[2,3-c]pyridin-3-yl-furo[2,3-c]pyridin-4-yl)-1-methyl-1H-pyrrole-2-carboxylic acid methyl ester]",5.00 to 6.00
9,"CC(=O)N1CCC(n2cc(-c3cnc(N)c4oc(-c5c(C#CC(C)(C)O)sc6cnccc56)cc34)cn2)CC1 [Example 265, 1-[4-(4-{7-amino-2-[2-(3-hydroxy-3-methylbut-1-yn-1-yl)thieno[2,3-c]pyridin-3-yl]furo[2,3-c]pyridin-4-yl}-1H-pyrazol-1-yl)piperidin-1-yl]ethanone trifluoroacetate]",6.00 to 7.00
10,"Nc1ncc(-c2ccsc2)c2cc(-c3csc4cnccc34)oc12 [Example 391, 2-(thieno[2,3-c]pyridin-3-yl)-4-(thiophen-3-yl)furo[2,3-c]pyridin-7-amine trifluoroacetate]",5.00 to 6.00
11,"CC(=O)N1CCC(n2cc(-c3cnc(N)c4oc(-c5ccc([N+](=O)[O-])nc5)cc34)cn2)CC1 [Example 119, 1-(4-{4-[7-amino-2-(6-nitropyridin-3-yl)furo[2,3-c]pyridin-4-yl]-1H-pyrazol-1-yl}piperidin-1-yl)ethanone]",5.00 to 6.00
12,"Nc1ncc(-c2cnn(C3CCNCC3)c2)c2cc(-c3cc(F)cc(F)c3)oc12 [Example 8, 2-(3,5-difluorophenyl)-4-[1-(piperidin-4-yl)-1H-pyrazol-4-yl]furo[2,3-c]pyridin-7-amine]",5.00 to 6.00
13,"Cc1ncc(-c2cnc(N)c3oc(-c4csc5cnccc45)cc23)n1C [Example 397, 4-(2,3-dimethyl-3H-imidazol-4-yl)-2-thieno[2,3-c]pyridin-3-yl-furo[2,3-c]pyridin-7-ylamine]",5.00 to 6.00
14,"Nc1cncc(-c2cc3c(-c4cnn(C5CCNCC5)c4)cnc(N)c3o2)c1 [Example 31, 2-(5-aminopyridin-3-yl)-4-[1-(piperidin-4-yl)-1H-pyrazol-4-yl]furo[2,3-c]pyridine-7-amine]",6.00 to 7.00
